From US20230031406A1, “COMPOUNDS AND COMPOSITIONS FOR TREATING CONDITIONS ASSOCIATED WITH NLRP ACTIVITY” (Novartis AG, priority 2018, published 2023)
Like-named read-outs stand apart in the source and are kept apart here. Values belong to the compound of their own block, whether it stands above or below them.

System: PMA-differentiated THP-1 cells
Assay: IL-1β production in PMA-differentiated THP-1 cells stimulated with gramicidin (hTHP-1 assay containing 2% fetal bovine serum; Procedures 1 and 2)
Format: cell-based, human
Settings: 2% fetal bovine serum
Method in brief: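 Compound titrations in 0.37% final DMSO were added to THP-1 cells that had been plated after 16-18 h PMA treatment, 50,000 per well in 2% FBS. One hour later the cells received gramicidin (5 μM, 2 h) and were centrifuged. HTRF detected IL-1β in the collected supernatants.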

[1] = Homo sapiens, THP-1, Table B2, class symbols, read-out: hTHP-1 IC50
[2] = Homo sapiens, THP-1, Table B1, class symbols, read-out: Average IC50 of compounds in hTHP-1 assay: hTHP-1 IC50
[3] = Homo sapiens, THP-1, Table B1, numeric bounds, read-out: Average IC50 of compounds in hTHP-1 assay: hTHP-1 IC50
[4] = Table B2, class symbols, read-out: hTHP-1 IC50
[5] = Homo sapiens, THP-1, Table B2, numeric bounds, read-out: hTHP-1 IC50
[6] = Homo sapiens, THP-1, Table B4, class symbols, read-out: hTHP-1 IC50
[7] = Table B1, class symbols, read-out: Average IC50 of compounds in hTHP-1 assay: hTHP-1 IC50

Structure (SMILES): CC(C)(O)c1csc(S(N)(=O)=NC(=O)Nc2cc(C3CC3)nc3c2CCC3)c1 (stereo not drawn) [Compound 176, N′-((2-cyclopropyl-6,7-dihydro-5H-cyclopenta[b]pyridin-4-yl)carbamoyl)-4-(2-hydroxypropan-2-yl)thiophene-2-sulfonimidamide]
IC50 [2]: 5 to 30 µM

Structure (SMILES): CC(C)(O)c1ccc(S(N)(=O)=NC(=O)Nc2c3c(nc4c2CCC4)CCC3)cn1 (stereo not drawn) [Compound 156, N′-((1,2,3,5,6,7-hexahydrodicyclopenta[b,e]pyridin-8-yl)carbamoyl)-6-(2-hydroxypropan-2-yl)pyridine-3-sulfonimidamide]
IC50 [3]: > 30 µM

Structure (SMILES): Cc1nc2c(c(NC(=O)N=S(N)(=O)c3ncc(C(C)(C)O)s3)c1C1CC1)CCC2 (single isomer, unassigned) [Compound 618b, (R) or (S)-N′-((3-cyclopropyl-2-methyl-6,7-dihydro-5H-cyclopenta[b]pyridin-4-yl)carbamoyl)-5-(2-hydroxypropan-2-yl)thiazole-2-sulfonimidamide]
IC50 [1]: 0.2 to 1 µM

Structure (SMILES): CNS(=O)(=NC(=O)Nc1c2c(nc3c1CCC3)CCC2)c1ccc(CN(C)C)cc1 (single isomer, unassigned) [Compound 120b, (S) or (R)-4-((dimethylamino)methyl)-N′-((1,2,3,5,6,7-hexahydro-dicyclopenta[b,e]pryidin-8-yl)carbamoyl)-N-methylbenzene-sulfonimidamide]
IC50 (Table B1, numeric bounds, read-out: Average IC50 of compounds in hTHP-1 assay: hTHP-1 IC50): > 30 µM

Structure (SMILES): CC(C)n1nc(S(N)(=O)=NC(=O)Nc2c3c(nc4c2CCC4(C)C)CCC3)cc1C(C)(C)O (stereo not drawn) [Compound 615, N′-((3,3-dimethyl-1,2,3,5,6,7-hexahydrodicyclopenta[b,e]pyridin-8-yl)carbamoyl)-5-(2-hydroxypropan-2-yl)-1-isopropyl-1H-pyrazole-3-sulfonimidamide]
IC50 [1]: 1 to 5 µM

Structure (SMILES): CC1CCc2c1nc1c(c2NC(=O)N=S(N)(=O)c2cc(C(C)(C)O)cs2)CCC1C (single isomer, unassigned) [Compound 131g, (R,R,R) or (R,S,S)-N′-((3,5-dimethyl-1,2,3,5,6,7-hexa-hydrodicyclo-penta[b,e]pyridin-8-yl)carbamoyl)-4-(2-hydroxypropan-2-yl)thio-phene-2-sulfonimidamide]
IC50 [7]: 0.2 to 1 µM

Structure (SMILES): CC(C)c1ncc(F)c(C(C)C)c1NC(=O)N=S(N)(=O)c1ncc(C(C)(C)O)s1 (single isomer, unassigned) [Compound 165b]
IC50 [2]: 5 to 30 µM

Structure (SMILES): NS(=O)(=NC(=O)Nc1c2c(nc3c1CCC31CC1)CCC2)c1ccn(C(F)F)n1 (single isomer, unassigned) [Compound 180b, (S) or (R)-1-(difluoromethyl)-N′-((1′,5′,6′,7′-tetrahydro-2′H-spiro[cyclopropane-1,3′-dicyclopenta[b,e]pryidin]-8′-yl)carbamoyl)-1H-pyrazole-3-sulfonimidamide]
IC50 [3]: > 30 µM

Structure (SMILES): CC1CCc2c1nc1c(c2NC(=O)N=S(N)(=O)c2ccn(C(C)C)n2)CCC1 (single isomer, unassigned) [Compound 129ba, (R,S) or (R,R)-1-isopropyl-N′-((3-methyl-1,2,3,5,6,7-hexa-hydrodicyclo-penta[b,e]pyridin-8-yl)carbamoyl)-1H-pyrazole-3-sulfonimidamide]
IC50 [7]: 1 to 5 µM

Other lines, results leading:

IC50 (Table B3, hTHP-1 assay, class symbols, read-out: IC50): 0.2 to 1 µM
Structure (SMILES): CCc1ncc(S(N)(=O)=NC(=O)Nc2c3c(nc4c2CC[C@H]4C)CCC3)s1 (single isomer, unassigned) [Example 674, (R) or (S)-2-ethyl-N′-(((R)-3-methyl-1,2,3,5,6,7-hexahydrodicyclopenta[b,e]pyridin-8-yl)carbamoyl) thiazole-5-sulfonimidamide]

IC50 [1]: 0.04 to 0.2 µM
Structure (SMILES): Cc1c(C2CC2)nc2c(c1NC(=O)N=S(N)(=O)c1nc(C(C)(C)O)cs1)CCC2 (stereo not drawn) [Compound 626, N′-((2-cyclopropyl-3-methyl-6,7-dihydro-5H-cyclopenta[b]pyridin-4-yl)carbamoyl)-4-(2-hydroxypropan-2-yl)thiazole-2-sulfonimidamide]

IC50 (Homo sapiens, THP-1, Table B3, hTHP-1 assay, numeric values, read-out: IC50): > 30 µM
Structure (SMILES): CC(C)n1nc(S(N)(=O)=NC(=O)Nc2c3c(nc4c2CC[C@H]4C)CCC3)cc1CO (single isomer, unassigned) [Example 644, (S) or (R)-5-(hydroxymethyl)-1-isopropyl-N′-(((R)-3-methyl-1,2,3,5,6,7-hexahydrodicyclopenta[b,e]pyridin-8-yl)carbamoyl)-1H-pyrazole-3-sulfonimidamide]

IC50 [4]: 5 to 30 µM
Structure (SMILES): Cc1c(C2CC2)nc2c(c1NC(=O)N=S(N)(=O)c1cc(C(C)(C)O)cs1)CCC2C (single isomer, unassigned) [Compound 656b, (S, S) or (S, R) or (R, S) or (R, R)-N′-((2-Cyclopropyl-3,7-dimethyl-6,7-dihydro-5H-cyclopenta[b]pyridin-4-yl)carbamoyl)-4-(2-hydroxypropan-2-yl)thiophene-2-sulfonimidamide]

IC50 [5]: > 30 µM
Structure (SMILES): CC(C)(O)c1cc(Br)c(S(N)(=O)=NC(=O)Nc2c3c(nc4c2CCC4)CCC3)s1 (single isomer, unassigned) [Compound 690a, (S) or (R)-3-Bromo-N′-((1,2,3,5,6,7-hexahydrodicyclopenta [b,e]pyridin-8-yl)carbamoyl)-5-(2-hydroxypropan-2-yl)thiophene-2-sulfonamidamide]

IC50 [5]: > 30 µM
Structure (SMILES): Cc1c(C(C)C)nc2c(c1NC(=O)N=S(N)(=O)c1ccn(C(C)C)n1)CCC2 (single isomer, unassigned) [Compound 644a, (S) or (R)-1-Isopropyl-N′-((2-isopropyl-3-methyl-6,7-dihydro-5H-cyclopenta[b]pyridin-4-yl)carbamoyl)-1H-pyrazole-3-sulfonimidamide]

IC50 [6]: 1 to 5 µM
Structure (SMILES): Cc1c(C(F)(F)F)nc2c(c1NC(=O)N=S(N)(=O)c1nn(-c3ccccc3)cc1F)CCC2 (stereo not drawn) [Example 749, 4-Fluoro-N′-((3-methyl-2-(trifluoromethyl)-6,7-dihydro-5H-cyclopenta[b]pyridin-4-yl)carbamoyl)-1-phenyl-1H-pyrazole-3-sulfonimidamide]

IC50 [1]: 5 to 30 µM
Structure (SMILES): CCn1ccc([S@@](N)(=O)=NC(=O)Nc2c(C)c(C(F)(F)F)nc3c2CCC3)n1 [Compound 731a]

IC50 [4]: 5 to 30 µM
Structure (SMILES): CC1(C)CCc2c1nc1c(c2NC(=O)N=S(N)(=O)c2ccn(-c3ccccc3)n2)CCC1 (single isomer, unassigned) [Compound 659a, (S) or (R)-N′-((3,3-dimethyl-1,2,3,5,6,7-hexahydrodicyclopenta [b,e]pyridin-8-yl)carbamoyl)-1-phenyl-1H-pyrazole-3-sulfonimidamide]

IC50 [4]: 5 to 30 µM
Structure (SMILES): CC(C)c1c(C2CC2)nc2c(c1NC(=O)N=S(N)(=O)c1cc(C(C)(C)O)cs1)CCC2 (single isomer, unassigned) [Compound 667a, (S) or (R)-N′-((2-cyclopropyl-3-isopropyl-6,7-dihydro-5H-cyclopenta[b]pyridin-4-yl)carbamoyl)-4-(2-hydroxypropan-2-yl)thiophene-2-sulfonimidamide]

IC50 [4]: 0.04 to 0.2 µM
Structure (SMILES): Cc1c(C(F)(F)F)nc2c(c1NC(=O)N=S(N)(=O)c1cc(C(C)(C)O)cs1)CCC2 (single isomer, unassigned) [Compound 624b, (R) or (S)-4-(2-Hydroxypropan-2-yl)-N′-((3-methyl-2-(trifluoromethyl)-6,7-dihydro-5H-cyclopenta[b]pyridin-4-yl)carbamoyl) thiophene-2-sulfonimidamide]

IC50 [6]: 1 to 5 µM
Structure (SMILES): CCn1ncc(F)c1S(N)(=O)=NC(=O)Nc1c(C)c(C(F)(F)F)nc2c1CCC2 (stereo not drawn) [compound 754, 1-Ethyl-4-fluoro-N′-((3-methyl-2-(trifluoromethyl)-6,7-dihydro-5H-cyclopenta[b]pyridin-4-yl)carbamoyl)-1H-pyrazole-5-sulfonimidamide]
